We go through one molecule from patent publication US20100210597A1, “C21-Deoxy Ansamycin Derivatives as Antitumor Agents” (priority 2007, published 2010).

Data set [1] deals with panel of human tumour cell lines. As to the kind of experiment: Monolayer proliferation assay, mean across cell line panel. Format: cell-based. The note with it: geometric mean of all replicates across six cell lines. The procedure: (§1) In vitro evaluation of compounds for anticancer activity in a panel of human tumour cell lines in a monolayer proliferation assay was carried out at the Oncotest Testing Facility, Institute for Experimental Oncology, Oncotest GmbH, Freiburg.
(§2) The Oncotest cell lines are established from human tumor xenografts as described by Roth et al., (1999). The origin of the donor xenografts is described by Fiebig et al., (1999). Other cell lines are either obtained from the NCl (DU145, MCF-7) or purchased from DSMZ, Braunschweig, Germany.
(§3) All cell lines, unless otherwise specified, are grown at 37° C. in a humidified atmosphere (95% air, 5% CO2) in a ‘ready-mix’ medium containing RPMI 1640 medium, 10% fetal calf serum, and 0.1 mg/mL gentamicin (PAA, Cölbe, Germany).
(§4) A modified propidium iodide assay was used to assess the effects of the test compound(s) on the growth of six human tumour cell lines (Dengler et al., (1995)).
Briefly, cells are harvested from exponential phase cultures by trypsinization, counted and plated in 96 well flat-bottomed microtitre plates at a cell density dependent on the cell line (5-10.000 viable cells/well). […] After thawing the plates, fluorescence was measured using the Cytofluor 4000 microplate reader (excitation 530 nm, emission 620 nm), giving a direct relationship to the total number of viable cells.
Growth inhibition is expressed as treated/control×100 (% T/C). […]

A further data set relates to CNXF 498NL. As to the kind of experiment: Monolayer proliferation assay (modified propidium iodide), CNXF 498NL. Format: cell-based, human. The note with it: average of 2 experiments. As to the method:
as §1, §2, §3, §4
Briefly, cells are harvested from exponential phase cultures by trypsinization, counted and plated in 96 well flat-bottomed microtitre plates at a cell density dependent on the cell line (5-10.000 viable cells/well). After 24 h recovery to allow the cells to resume exponential growth, 0.010 mL of culture medium (6 control wells per plate) or culture medium containing macbecin were added to the wells. Each concentration is plated in triplicate. […] Following 4 days of continuous exposure, cell culture medium with or without test compound was replaced by 0.2 mL of an aqueous propidium iodide (P1) solution (7 mg/L). To measure the proportion of living cells, cells were permeabilized by freezing the plates. After thawing the plates, fluorescence was measured using the Cytofluor 4000 microplate reader (excitation 530 nm, emission 620 nm), giving a direct relationship to the total number of viable cells.
(§5) Growth inhibition is expressed as treated/control×100 (% T/C).
(§6) In vitro evaluation of the test compound, 20, for anticancer activity in a panel of human tumour cell lines in a monolayer proliferation assay was carried out as described in the general methods using a modified propidium iodide assay.

Data set [2] in a line: In vivo pharmacokinetic assay in mice. The note with it: female CD-1 mice. More on the design: species or system mouse. The procedure:
The test compound was prepared directly in endotoxin free water. A single dose of 10 mg/kg p.o. or 3 mg/kg i.v. was administered to groups of female CD1 mice (3 mice for each compound per time point). Dose volumes were 10 mL/kg for both oral and intravenous administration. At 4 minutes and 0.25, 0.5, 1, 2, 4, 8, 24 hours groups were sacrificed and plasma was collected from each mouse for further analysis. For oral dosing, a single dose of Test Article was administered via oral gavage to the mice. For intravenous dosing, a single dose of Test article was administered intravenously to mice via the tail veins.
The concentration of the relevant compounds in the plasma samples was determined by HPLC with MS detection.
• Mass spectrometer: API 3200 Q Trap triple quadruple mass spectrometer • Liquid chromatography: Agilent 1200/PAL HTC Autosampler • Ionization Mode: Electrospray (may be changed depending on the TA) • Monitoring: Multiple Reaction Monitoring • LC chromatography BetaBastic-8, 50×2.1 mm, 5 μm (may separation: be changed depending on the TA)
Based on the peak area ratios of test article to an internal standard, 17-Methoxyethylamino Geldanamycin (Schnur et al., 1995), concentrations of an unknown sample were obtained by a calibration curve.
Test plasma sample (0.05 ml), analyte free mouse whole serum (0.05 ml), internal standard solution (0.1 ml of 10 mg/mL 17-Methoxyethylamino geldanamycin (Schnur et al., 1995) dissolved in methanol) and acetonitrile (0.5 ml) were pipetted into a 2-mL polypropylene tube and the contents of the tubes were mixed for a minimum of 5 minutes (Vibrax mixer). The tubes were then centrifuged in a microfuge for a minimum of 2 minutes at 12,000 rpm. 0.1 ml of the solvent layer was transferred into a 2-mL polypropylene tube containing 1 mL acid diluent (0.1% formic acid). The tubes were then mixed for a minimum of 5 minutes (Vibrax mixer) and then centrifuged at approximately 3500 rpm for 5 minutes. The extracts were transferred to auto-sampler vials and placed in the auto sampler tray which was set at ambient temperature. The auto-sampler was programmed to inject a 0.005 ml aliquot of each extract onto the analytical column.
In vivo confirmation of the cleavage of 20 to the parent molecule, 17, was carried out as described in the general methods.
Female CD-1 mice were given single doses of 20, either intravenously at 3 mg/kg, or orally at 10 mg/kg. Plasma samples were then collected at 8 time points (0.067, 0.25, 0.5, 1, 2, 4, 8 and 24 h postdose) over a 24-h period. The amounts of 20 and 17 in the samples were then analysed. […] After iv administration, 20 was only detected up to 0.25 hours after dosing, whilst 17 was detected up to 4 hours after dosing.

For another data set, the system named is DU145. As to the kind of experiment: Monolayer proliferation assay (modified propidium iodide), DU145. The following applies: average of 2 experiments. Format: cell-based, human. The procedure: as §1, §2, §3, §4
(§7) Briefly, cells are harvested from exponential phase cultures by trypsinization, counted and plated in 96 well flat-bottomed microtitre plates at a cell density dependent on the cell line (5-10.000 viable cells/well). After 24 h recovery to allow the cells to resume exponential growth, 0.010 mL of culture medium (6 control wells per plate) or culture medium containing macbecin were added to the wells. Each concentration is plated in triplicate. Compounds were applied in two concentrations (0.001 mM and 0.01 mM). Following 4 days of continuous exposure, cell culture medium with or without test compound was replaced by 0.2 mL of an aqueous propidium iodide (P1) solution (7 mg/L). To measure the proportion of living cells, cells were permeabilized by freezing the plates. After thawing the plates, fluorescence was measured using the Cytofluor 4000 microplate reader (excitation 530 nm, emission 620 nm), giving a direct relationship to the total number of viable cells.
as §5, §6

A further data set concerns LXF 1121L. Put plainly: Monolayer proliferation assay (modified propidium iodide), LXF 1121L. Format: cell-based, human. The following applies: average of 2 experiments. As to the method: as §1, §2, §3, §4, §7, §5, §6
In a further data set the test system is MCF-7. As to the kind of experiment: Monolayer proliferation assay (modified propidium iodide), MCF-7. Format: cell-based, human. The following applies: average of 2 experiments. The procedure:
as §1, §2, §3, §4, §7, §5, §6

For `CO[C@H]1C[C@H](C)Cc2cc(cc(OP(=O)(O)O)c2)NC(=O)/C(C)=C/CC[C@H](C)[C@@H](OC(N)=O)/C(C)=C/[C@H](C)[C@H]1O` [Compound 20, 4,5-dihydro-11-O-demethyl-15-demethoxy-18,21-didehydro-21-deoxomacbecin-18-phosphate], the “average IC70 value across the cell-line panel” value in data set [1] amounted to 0.344 µg/mL. The “Test/Control (%) at drug concentration (μg/mL)” value (shortened to “Test/Control (%)”) was determined as 99% in the data set on CNXF 498NL (0.01 μg/mL); 77% in the data set on CNXF 498NL (0.1 μg/mL); 15% in the data set on CNXF 498NL (1 μg/mL); 16% in the data set on CNXF 498NL (10 μg/mL); 12% in the data set with CNXF 498NL (100 μg/mL); 99% in the data set with DU145 (DU145, 0.01 μg/mL). The “Test/Control (%)” value is recorded as 53% in the data set on DU145 (DU145, 0.1 μg/mL); 8% in the data set with DU145 (DU145, 1 μg/mL); 9% in the data set on DU145 (DU145, 10 μg/mL); 3% in the data set on DU145 (DU145, 100 μg/mL); 103% with LXF 1121L (0.01 μg/mL); 58% in the data set with LXF 1121L (0.1 μg/mL). The “Test/Control (%)” value in the data set on LXF 1121L (1 μg/mL) came out at 15%; with LXF 1121L (10 μg/mL), 14%; in the data set with LXF 1121L (100 μg/mL), 5%; with MCF-7 (MCF-7, 0.01 μg/mL) it was 98%; with MCF-7 (MCF-7, 0.1 μg/mL), 38%; with MCF-7 (MCF-7, 1 μg/mL), 14%. In addition, the “Test/Control (%)” value was 13% in the data set on MCF-7 (MCF-7, 10 μg/mL) and 9% with MCF-7 (MCF-7, 100 μg/mL). For the same molecule, the “detected in plasma up to (time after dosing)” value in data set [2] (single intravenous dose of 20 at 3 mg/kg) is on record as “up to 0.25 hours”; in data set [2] (single oral dose of 20 at 10 mg/kg), “not seen in the plasma”.
